Data from the supplement of paper PMC11451515.

Test system: SEM cells
Assay: cell viability relative to DMSO control; higher = less cytotoxic
Conditions: 48 h
Method in brief: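 Before seeding, each leukemia line was adapted for at least four passages in each medium. NOMO1 or SEM cells (500 cells/well) and P12-Ichikawa cells (1000 cells/well) went into 1536-well plates at 5 μl, then received library compounds in DMSO by pin dosing across 11 threefold concentrations, 47 μM to 0.79 nM. Readout was CellTiter-Glo One luminescence after 48 h at 37°C, and viability is given as a per-plate percentage of DMSO wells, with cell-free wells as background.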

[1] = HPLM + 10% dialyzed FBS, 0.000781 µM
[2] = HPLM + 10% dialyzed FBS, 0.00234 µM
[3] = HPLM + 10% dialyzed FBS, 0.00702 µM
[4] = HPLM + 10% dialyzed FBS, 0.0211 µM
[5] = HPLM + 10% dialyzed FBS, 0.0632 µM
[6] = HPLM + 10% dialyzed FBS, 0.19 µM
[7] = HPLM + 10% dialyzed FBS, 0.569 µM
[8] = HPLM + 10% dialyzed FBS, 1.71 µM
[9] = HPLM + 10% dialyzed FBS, 5.12 µM
[10] = HPLM + 10% dialyzed FBS, 15.4 µM
[11] = HPLM + 10% dialyzed FBS, 46.1 µM
[12] = RPMI 5 mM glucose + 10% FBS, 0.000781 µM
[13] = RPMI 5 mM glucose + 10% FBS, 0.00234 µM
[14] = RPMI 5 mM glucose + 10% FBS, 0.00702 µM
[15] = RPMI 5 mM glucose + 10% FBS, 0.0211 µM
[16] = RPMI 5 mM glucose + 10% FBS, 0.0632 µM
[17] = RPMI 5 mM glucose + 10% FBS, 0.19 µM
[18] = RPMI 5 mM glucose + 10% FBS, 0.569 µM
[19] = RPMI 5 mM glucose + 10% FBS, 1.71 µM
[20] = RPMI 5 mM glucose + 10% FBS, 5.12 µM
[21] = RPMI 5 mM glucose + 10% FBS, 15.4 µM
[22] = RPMI 5 mM glucose + 10% FBS, 46.1 µM
[23] = RPMI 5 mM glucose + 10% dialyzed FBS, 0.000781 µM
[24] = RPMI 5 mM glucose + 10% dialyzed FBS, 0.00234 µM
[25] = RPMI 5 mM glucose + 10% dialyzed FBS, 0.00702 µM
[26] = RPMI 5 mM glucose + 10% dialyzed FBS, 0.0211 µM
[27] = RPMI 5 mM glucose + 10% dialyzed FBS, 0.0632 µM
[28] = RPMI 5 mM glucose + 10% dialyzed FBS, 0.19 µM
[29] = RPMI 5 mM glucose + 10% dialyzed FBS, 0.569 µM
[30] = RPMI 5 mM glucose + 10% dialyzed FBS, 1.71 µM
[31] = RPMI 5 mM glucose + 10% dialyzed FBS, 5.12 µM
[32] = RPMI 5 mM glucose + 10% dialyzed FBS, 15.4 µM
[33] = RPMI 5 mM glucose + 10% dialyzed FBS, 46.1 µM

CCCC[S+](=N)([O-])CCC(N)C(=O)O (stereo unspecified)
cell viability [1]: 87.1% | cell viability [2]: 78.5% | cell viability [3]: 102% | cell viability [4]: 107% | cell viability [5]: 124% | cell viability [6]: 108% | cell viability [7]: 132% | cell viability [8]: 102% | cell viability [9]: 109% | cell viability [10]: 97.5% | cell viability [11]: 41.6% | cell viability [12]: 114% | cell viability [13]: 109% | cell viability [14]: 136% | cell viability [15]: 131% | cell viability [16]: 113% | cell viability [17]: 136% | cell viability [18]: 128% | cell viability [19]: 104% | cell viability [20]: 125% | cell viability [21]: 103% | cell viability [22]: 84.6% | cell viability [23]: 120% | cell viability [24]: 108% | cell viability [25]: 131% | cell viability [26]: 122% | cell viability [27]: 137% | cell viability [28]: 140% | cell viability [29]: 128% | cell viability [30]: 146% | cell viability [31]: 157% | cell viability [32]: 111% | cell viability [33]: 120%

COC(=O)[C@H](Cc1ccccc1)NC(=O)[C@@H](N)CC(=O)O
cell viability [1]: 128% | cell viability [2]: 106% | cell viability [3]: 111% | cell viability [4]: 103% | cell viability [5]: 130% | cell viability [6]: 110% | cell viability [7]: 126% | cell viability [8]: 119% | cell viability [9]: 103% | cell viability [10]: 120% | cell viability [11]: 116% | cell viability [12]: 125% | cell viability [13]: 98.5% | cell viability [14]: 121% | cell viability [15]: 112% | cell viability [16]: 122% | cell viability [17]: 118% | cell viability [18]: 128% | cell viability [19]: 119% | cell viability [20]: 100% | cell viability [21]: 123% | cell viability [22]: 116% | cell viability [23]: 124% | cell viability [24]: 106% | cell viability [25]: 104% | cell viability [26]: 107% | cell viability [27]: 123% | cell viability [28]: 122% | cell viability [29]: 111% | cell viability [30]: 116% | cell viability [31]: 98.3% | cell viability [32]: 110% | cell viability [33]: 104%

CC(C)C[C@H](CC(=O)O)C(=O)N[C@@H](Cc1c[nH]c2ccccc12)C(=O)N[C@@H](C)c1ccccc1
cell viability [1]: 96.1% | cell viability [2]: 100% | cell viability [3]: 119% | cell viability [4]: 113% | cell viability [5]: 106% | cell viability [6]: 105% | cell viability [7]: 7.87% | cell viability [8]: 92.1% | cell viability [9]: 112% | cell viability [10]: 73.1% | cell viability [11]: 54% | cell viability [12]: 96.1% | cell viability [13]: 112% | cell viability [14]: 125% | cell viability [15]: 116% | cell viability [16]: 110% | cell viability [17]: 122% | cell viability [18]: 8.87% | cell viability [19]: 86.2% | cell viability [20]: 96.9% | cell viability [21]: 65.9% | cell viability [22]: 54.3% | cell viability [23]: 77.7% | cell viability [24]: 90.4% | cell viability [25]: 97.3% | cell viability [26]: 113% | cell viability [27]: 89.6% | cell viability [28]: 87.2% | cell viability [29]: 8.39% | cell viability [30]: 79.4% | cell viability [31]: 90.2% | cell viability [32]: 53.7% | cell viability [33]: 46.4%

NCCOc1cc(C(=O)Nc2cc(OCCN)c3ccccc3n2)nc(C(=O)Nc2cc(OCCN)c3ccccc3n2)c1
cell viability [1]: 47.6% | cell viability [2]: 56.1% | cell viability [3]: 36.1% | cell viability [4]: 23.8% | cell viability [5]: 19.4% | cell viability [6]: 22.9% | cell viability [7]: 22.8% | cell viability [8]: 21.5% | cell viability [9]: 22.2% | cell viability [10]: 31.1% | cell viability [11]: 46.3% | cell viability [12]: 23.9% | cell viability [13]: 19.8% | cell viability [14]: 23.7% | cell viability [15]: 21.1% | cell viability [16]: 22.1% | cell viability [17]: 23.6% | cell viability [18]: 23.2% | cell viability [19]: 19.3% | cell viability [20]: 27.5% | cell viability [21]: 32.6% | cell viability [22]: 61.1% | cell viability [23]: 67.3% | cell viability [24]: 58.4% | cell viability [25]: 42.6% | cell viability [26]: 25.6% | cell viability [27]: 22.9% | cell viability [28]: 20% | cell viability [29]: 22.9% | cell viability [30]: 25.4% | cell viability [31]: 21.7% | cell viability [32]: 38.2% | cell viability [33]: 59.5%

CC(C)(C)NCC(O)c1ccc(O)c(CO)c1 (stereo unspecified)
cell viability [1]: 101% | cell viability [2]: 99.4% | cell viability [3]: 103% | cell viability [4]: 106% | cell viability [5]: 113% | cell viability [6]: 102% | cell viability [7]: 112% | cell viability [8]: 106% | cell viability [9]: 104% | cell viability [10]: 109% | cell viability [11]: 93.6% | cell viability [12]: 118% | cell viability [13]: 113% | cell viability [14]: 115% | cell viability [15]: 112% | cell viability [16]: 108% | cell viability [17]: 125% | cell viability [18]: 109% | cell viability [19]: 95.5% | cell viability [20]: 107% | cell viability [21]: 108% | cell viability [22]: 111% | cell viability [23]: 96.9% | cell viability [24]: 112% | cell viability [25]: 109% | cell viability [26]: 124% | cell viability [27]: 115% | cell viability [28]: 114% | cell viability [29]: 111% | cell viability [30]: 116% | cell viability [31]: 120% | cell viability [32]: 122% | cell viability [33]: 114%

CN(C)C(=O)[C@H](O)[C@H](Cc1ccccc1)NC(=O)c1cc2cc(Cl)ccc2[nH]1
cell viability [1]: 98.5% | cell viability [2]: 109% | cell viability [3]: 107% | cell viability [4]: 118% | cell viability [5]: 122% | cell viability [6]: 119% | cell viability [7]: 109% | cell viability [8]: 86.1% | cell viability [9]: 14% | cell viability [10]: 11.2% | cell viability [11]: 7.62% | cell viability [12]: 95.8% | cell viability [13]: 80.9% | cell viability [14]: 81.7% | cell viability [15]: 86.3% | cell viability [16]: 108% | cell viability [17]: 94.6% | cell viability [18]: 104% | cell viability [19]: 81.2% | cell viability [20]: 14% | cell viability [21]: 8.95% | cell viability [22]: 6.87% | cell viability [23]: 85.2% | cell viability [24]: 108% | cell viability [25]: 105% | cell viability [26]: 100% | cell viability [27]: 111% | cell viability [28]: 105% | cell viability [29]: 105% | cell viability [30]: 77.9% | cell viability [31]: 18.8% | cell viability [32]: 8.36% | cell viability [33]: 6.18%

CNC(=O)c1nn(C)c2c1C(C)(C)Cc1cnc(Nc3ccc(N4CCN(C)CC4)cc3)nc1-2
cell viability [1]: 108% | cell viability [2]: 101% | cell viability [3]: 103% | cell viability [4]: 93% | cell viability [5]: 89.1% | cell viability [6]: 64.6% | cell viability [7]: 39.3% | cell viability [8]: 16% | cell viability [9]: 12% | cell viability [10]: 7.99% | cell viability [11]: 7.09% | cell viability [12]: 115% | cell viability [13]: 97.1% | cell viability [14]: 113% | cell viability [15]: 104% | cell viability [16]: 86.5% | cell viability [17]: 67.4% | cell viability [18]: 48.8% | cell viability [19]: 13.8% | cell viability [20]: 8.18% | cell viability [21]: 5.66% | cell viability [22]: 2.21% | cell viability [23]: 97.9% | cell viability [24]: 101% | cell viability [25]: 101% | cell viability [26]: 110% | cell viability [27]: 78.6% | cell viability [28]: 69.5% | cell viability [29]: 47.2% | cell viability [30]: 16.8% | cell viability [31]: 9.79% | cell viability [32]: 7.03% | cell viability [33]: 4.75%
